Literature values in US9597342B2 (UWM Research Foundation, Inc., priority 2011, dated 2017).

Target: all four diazepam-sensitive GABAA receptors
Settings: Huang et al., J. Med. Chem. 2000; cited from earlier work

Which Ki does the source give for CN1C(=O)CN=C(c2ccccc2)c2cc(Cl)ccc21 [diazepam] here?
Its Ki is under 25 nM.
